Key:
[1] = biological target: ALK tyrosine kinase receptor (Homo sapiens, UniProt Q9UM73)
[2] = biological target: ALK tyrosine kinase receptor (Homo sapiens, UniProt Q9UM73, L1196M)
[3] = tested on: BaF3; assay: cells; details: Mus musculus
Description: Cytotoxicity against mouse BAF3 cells assessed as growth inhibition after 72 hrs by [3H]-thymidine incorporation assay

| IC50 [1] [µM] | Compound | IC50 [2] [µM] | IC50 [3] [µM] |
| --- | --- | --- | --- |
| 10 | COc1ccc(-c2cc3nc4ccc(Br)cc4n3cn2)cc1 |  | > 25 |
| 18 | COc1ccc(-c2cncc3nc4ccc(-c5ccc(NC(C)=O)cc5)cc4n23)cc1 |  |  |
| 51 | COc1cccc(Nc2cc3nc4ccccc4n3cn2)c1 |  |  |
| 14 | COc1ccc(-c2cncc3nc4ccc(-c5ccc(N6CCN(C)CC6)cc5)cc4n23)cc1 |  |  |
| > 100 | Clc1cncc2nc3ccccc3n12 |  |  |
| > 50 | Clc1cc2nc3ccc(Br)cc3n2cn1 |  |  |

The next lines start with the molecule.

| Compound | IC50 [1] [µM] | IC50 [2] [µM] | IC50 [3] [µM] |
| --- | --- | --- | --- |
| Brc1ccc2nc3cc(Nc4ccccc4)ncn3c2c1 | 69 | 49 | 5.2 |
| Clc1cncc2nc3ccc(Br)cc3n12 | > 50 |  | 2.4 |
| O=[N+]([O-])c1cccc(Nc2cc3nc4ccccc4n3cn2)c1 | 10 | 14 |  |
| CN1CCN(c2ccc(-c3ccc4nc5cncc(-c6ccc(N7CCN(C)CC7)cc6)n5c4c3)cc2)CC1 | > 100 | 29 | 0.87 |
| c1ccc(Nc2cc3nc4ccccc4n3cn2)cc1 | 52 | 10 |  |
| Clc1cc2nc3ccccc3n2cn1 | > 100 |  |  |
| COc1ccc(-c2cncc3nc4ccc(/C=C/c5ccccc5)cc4n23)cc1 | 3.5 | 4.5 |  |
| COc1ccc(-c2ccc3nc4cncc(/C=C/c5ccccc5)n4c3c2)cc1 | 0.65 | 1.5 | > 12.5 |
